{"source": "paper PMC7200709", "about": "“The mechanism of loop C-neonicotinoid interactions at insect nicotinic acetylcholine receptor α1 subunit predicts resistance emergence in pests” (Scientific Reports, 2020)", "key": {"(Dα1)3(β2)2 nAChR": {"target": "T1, (Dα1)3(β2)2 nAChR (Drosophila melanogaster, UniProt P09478+P09484)", "T1 construct": "gene nAChRalpha1; fruitfly Dα1 and chicken β2 cDNAs in pcDNA3.1(+), cRNA mixed 5:1 (Dα1:β2), Xenopus laevis oocytes; hybrid pentamer with Dα1/Dα1 and Dα1/β2 interfaces", "T1 sequence (P09478 22-567)": "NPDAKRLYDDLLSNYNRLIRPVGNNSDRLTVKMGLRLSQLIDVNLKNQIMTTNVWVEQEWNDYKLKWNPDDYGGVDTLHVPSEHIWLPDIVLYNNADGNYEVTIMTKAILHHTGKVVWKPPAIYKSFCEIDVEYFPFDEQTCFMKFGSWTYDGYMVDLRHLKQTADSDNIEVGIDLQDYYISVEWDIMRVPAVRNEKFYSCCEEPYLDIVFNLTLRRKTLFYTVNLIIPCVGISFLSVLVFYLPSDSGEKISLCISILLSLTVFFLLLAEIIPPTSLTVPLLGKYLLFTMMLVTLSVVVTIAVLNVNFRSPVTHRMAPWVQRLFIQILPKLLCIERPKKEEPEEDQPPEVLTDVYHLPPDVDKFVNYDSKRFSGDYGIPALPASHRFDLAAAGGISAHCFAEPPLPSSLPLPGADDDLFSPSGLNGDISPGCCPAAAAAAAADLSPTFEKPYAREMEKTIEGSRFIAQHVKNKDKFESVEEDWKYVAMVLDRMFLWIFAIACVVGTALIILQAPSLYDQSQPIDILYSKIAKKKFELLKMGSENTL", "T1 sequence (P09484 19-491)": "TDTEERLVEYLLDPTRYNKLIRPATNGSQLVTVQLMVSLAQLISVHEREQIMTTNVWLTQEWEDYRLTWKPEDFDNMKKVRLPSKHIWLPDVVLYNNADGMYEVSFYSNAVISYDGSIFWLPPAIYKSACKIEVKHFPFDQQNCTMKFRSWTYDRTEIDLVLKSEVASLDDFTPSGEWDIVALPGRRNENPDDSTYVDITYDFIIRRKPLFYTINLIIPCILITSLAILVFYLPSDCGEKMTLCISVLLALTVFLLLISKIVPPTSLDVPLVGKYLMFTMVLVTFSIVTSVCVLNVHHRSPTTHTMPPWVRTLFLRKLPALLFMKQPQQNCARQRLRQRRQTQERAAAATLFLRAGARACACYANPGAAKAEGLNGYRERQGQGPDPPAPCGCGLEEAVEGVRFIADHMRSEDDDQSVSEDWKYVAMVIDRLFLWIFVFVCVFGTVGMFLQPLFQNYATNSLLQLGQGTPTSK", "experiment": "two-electrode voltage clamp, Xenopus oocytes, agonist concentration-response", "type": "cell-based", "from_the_text": "two-electrode voltage clamp, Xenopus oocytes, agonist concentration-response on (Dα1)3(β2)2 nAChR"}, "(Dα1)2(β2)3 nAChR": {"target": "T2, (Dα1)2(β2)3 nAChR (Drosophila melanogaster, UniProt P09478+P09484)", "T2 construct": "gene nAChRalpha1; fruitfly Dα1 and chicken β2 cDNAs in pcDNA3.1(+), cRNA mixed 1:5 (Dα1:β2), Xenopus laevis oocytes; hybrid pentamer with Dα1/β2 interfaces", "T2 sequence (P09478 22-567)": "as the sequence (P09478 22-567) above", "T2 sequence (P09484 19-491)": "as the sequence (P09484 19-491) above", "experiment": "two-electrode voltage clamp, Xenopus oocytes, agonist concentration-response", "type": "cell-based", "from_the_text": "two-electrode voltage clamp, Xenopus oocytes, agonist concentration-response on (Dα1)2(β2)3 nAChR"}}, "note": "Where two headings read alike, the source gives them in different places.", "data": [{"compound": "N#C/N=C1\\SCCN1Cc1ccc(Cl)nc1", "note": "[thiacloprid]", "values": [{"measurement": "EC50", "setting": "(Dα1)3(β2)2 nAChR; read-out: Thiacloprid / (Dα1)3(β2)2 / pEC50 (converted)", "value": 45.7, "unit": "nM"}, {"measurement": "EC50", "setting": "(Dα1)2(β2)3 nAChR; read-out: Thiacloprid / (Dα1)2(β2)3 / pEC50 (converted)", "value": 24.5, "unit": "nM"}]}, {"compound": "O=[N+]([O-])NC1=NCCN1Cc1ccc(Cl)nc1", "note": "[imidacloprid]", "values": [{"measurement": "EC50", "setting": "(Dα1)3(β2)2 nAChR; read-out: Imidacloprid / (Dα1)3(β2)2 / pEC50 (converted)", "value": 162, "unit": "nM"}, {"measurement": "EC50", "setting": "(Dα1)2(β2)3 nAChR; read-out: Imidacloprid / (Dα1)2(β2)3 / pEC50 (converted)", "value": 112, "unit": "nM"}]}, {"compound": "CC(=O)OCC[N+](C)(C)C", "note": "[ACh]", "values": [{"measurement": "EC50", "setting": "(Dα1)3(β2)2 nAChR; read-out: (Dα1)3(β2)2 / pEC50 (converted)", "value": 155, "unit": "nM"}, {"measurement": "EC50", "setting": "(Dα1)2(β2)3 nAChR; read-out: (Dα1)2(β2)3 / pEC50 (converted)", "value": 162, "unit": "nM"}]}]}
